From patent US9499585B2, “Bioactive peptide complexes” (priority 2012, dated 2016) come the findings set out here.

No end group written: not given here.

The subject of data set [1] is A/Aichi/2/68 (H3N2) flu strain. In kind it is in vivo, white mice.
Data set [2] in a line: Zn^++ ion binding with A1 peptide by light-scattering method. In kind it is physicochemical. To be noted: Zn(NO3)2; light scattering at 400 nm; aggregates dissolve on adding EDTA. The source says:
Zn^++ ion binding with alloferon 1 (A1) and its homologs was studied by the method described [Shi Y., Beger R. D., Berg J. M. Metal binding properties of single amino acid deletion mutants of zinc finger peptides: studies using cobalt(II) as a spectroscopic prob. Biophys. J., 1993, Vol. 64, p. 749-753]. Zn^++ ion binding with A1 peptide was studied by the light-scattering method using ISS, Campaign, IL fluorimeter at 400 nm and excitation light 398 nm.
For analysis conditions refer to Shi Y. et al. (1993)
A—(open circles) A1 and Zn(N03)2. interaction Excess molar quantity of Zn^++ ion comparing to peptide was 1:10. Firm line—peptide enrichment with Zn^+ ion. Ground peptide mass changed into aggregates with complete enrichment. EDTA was added to aggregates. Subsequent to addition of EDTA the complex quickly dissociated and peptide (alloferon) changed to soluble phase.

For the next data set, the system named is Type I interferons. The data set can be described thus: Type I interferons induction. The following applies: FIG. 6. An excerpt: Type I interferons induction was studied by the previously published method [F. I. Yershov., O. I. Kiselev. Interferons and their inducers (from the molecule to the drug) M.: Publ. House. Geotar—Media, 2005-P. 356, Chernysh et al. 2002].

`CC(N)C12CC3CC(CC(C3)C1)C2` (stereo not shown) [Remantadin]: in data set [1] ([…], mice observed 15 days), the protective effect is on record as 80-87%.
Take “HGVSGHGQHGVHG [Alloferon A1, nonmodified base peptide]”: in data set [1] (mouse, in vivo), the “protective effect (in words)” value was “comparable to efficiency of the protective effect of reference drug Remantadin”. The “diameter of polydisperse nanoparticles formed on peptide aggregation with Zn^++” value in data set [2] is 50-60 nm. For the same molecule, the interferon induction activity entry in the data set with Type I interferons is “quite high level of interferon induction ability”.
